In experiment [1] the target is T1, α2 subunit of the human GABAA receptor in association with the beta2 (short) and gamma2 (long) subunits (Homo sapiens, UniProt P18507+P47869+P47870).
T1 construct: expressed in transfected cells; host or cells: HEK-293
Briefly: GABA-induced membrane potential response (FMP dye, FlexStation3) in HEK-293 cells expressing GABAA α2. The experiment is classed as cell-based. As for the experimental part: (§1) The compounds are tested on HEK-293 (Human Embryonic Kidney) cells stably expressing the […] or the α5 subunit of the human GABAA receptor in association with the beta2 (short) and gamma2 (long) subunits, thus forming heteropentameric GABAA receptors. The cells are maintained in the presence of a selection of three antibiotics—neomycin, zeocin and puromycin—in a Dulbecco medium (DMEM) containing 10% (v/v) foetal bovine serum The membrane potential is monitored using the fluorescent blue FMP dye (Molecular Devices), following the instructions of the manufacturer. On the day before the experiment, the cells are transferred to 96-well plates (in a density of 50,000 cells/well). 18-24 h later the cells are washed and incubated with the compounds under test plus the FMP dye. Recording of the fluorescence signal in a FlexStation3 plate reader (Molecular Devices, USA) is started 40 min later. After 30 sec of monitoring baseline fluorescence GABA is added to evoke a fluorescent signal reporting depolarisation of the membrane potential across the plasma membrane. The GABA induced responses are recorded for 90 seconds. Data are calculated by subtracting the average baseline value and computing the area under the curve of the fluorescence signal induced by GABA. The IC50 values for α5 and the EC50 values for α2 of the tested compounds are determined from log concentration versus response curves obtained by non-linear regression using SoftMax Pro software (Molecular Devices, USA).

For experiment [2], the target named is T2, α5 subunit of the human GABAA receptor in association with the beta2 (short) and gamma2 (long) subunits (Homo sapiens, UniProt P18507+P31644+P47870).
T2 construct: expressed in transfected cells; host or cells: HEK-293
Kind of experiment: GABA-induced membrane potential response (FMP dye, FlexStation3) in HEK-293 cells expressing GABAA α5. The format is cell-based. As for the experimental part: as §1

Experiment [3] has as its target T3, α1 subunit of the human GABAA receptor in association with the beta2 (short) and gamma2 (long) subunits (Homo sapiens, UniProt P14867+P18507+P47870).
T3 construct: expressed in transfected cells; host or cells: HEK-293
Kind of experiment: GABA-induced membrane potential response (FMP dye, FlexStation3) in HEK-293 cells expressing GABAA α1. The format is cell-based.

The test system of experiment [4] is mice. Kind of experiment: Light-dark test in mice. The experiment is classed as in vivo. Particulars: i.p. administration, FIG. 5. How it is done:
FIG. 5. […] Mean values±S.E.M. (n=11-20/group) Student's t-test: vehicle vs. Diazepam-treated group (*p<0.05) Dunnett test following ANOVA: vehicle-treated vs. compound-treated groups (#:p<0.05).
The light-dark apparatus contains a light (brightly illuminated) and a dark compartment. A small opening connects the two parts. During the 5 minutes test mice were placed individually in the light compartment and allowed to explore the entire apparatus. The activity of animals was measured automatically by interruptions of horizontal and vertical infrared beams. An increase of time spent in the light area (increase in light horizontal time) is interpreted as an anxiolytic effect. The results are illustrated in FIG. 5.

For experiment [5], the system named is mice. Briefly: Prepulse inhibition test in mice, PCP-induced PPI disruption. The format is in vivo. To be noted: i.p. administration, FIG. 4. An excerpt:
FIG. 4. […] Mean values±S.E.M. (n=10-12/group) Student's t-test: vehicle vs. PCP-treated group (***p<0.001) Dunnett's test following ANOVA: PCP-treated vs. PCP+compound treated groups (#:p<0.05).
The startle reaction of a healthy rodents and humans to a strong acoustic stimulus is reduced by the prior presentation of a weak stimulus. The effect of the weak stimulus on the startle response has been termed prepulse inhibition (PPI). Reduced prepulse inhibition is a hallmark feature of attention-processing (sensorimotor gating) deficits in patients with schizophrenia and other psychotic disorders. Acute administration of phencyclidine (PCP), an antagonist of N-methyl D-aspartate (NMDA)-type glutamate receptors, disrupts PPI in rodents and this effect can be prevented by clinically effective antipsychotics. The results are illustrated in FIG. 4.

The subject of experiment [6] is mice. Kind of experiment: Novel object recognition test in mice. The format is in vivo. Particulars: i.p. administration, FIG. 1 and FIG. 2. An excerpt:
FIG. 1 and FIG. 2. […] Mean values±S.E.M. (n=8-11/group); Dunnett test following ANOVA (*:p<0.05, **:p<0.01, ***:p<0.001). Discrimination index: Duration of new object exploration (s)−Duration of familiar object exploration (s)/Duration of new object exploration (s)+Duration of familiar object exploration (s).
The novel object recognition test evaluates the ability of mice to detect novelty in an otherwise familiar environment. Subsequent a short exploratory period, mice are unable to discriminate between the familiar and the new object 24 hours later. […] Enhancement of the discrimination index is considered as a procognitive effect. The results are illustrated in FIG. 1 and FIG. 2.

In the next experiment the test system is rats. Kind of experiment: Social interaction test in rats. The experiment is classed as in vivo. To be noted: i.p. administration, FIG. 6. An excerpt: FIG. 6. […] Mean values±S.E.M. (n=12/group) Kruskal-Wallis ANOVA followed by Mann-Whitney U test: control vs. compound-treated groups (**:p<0.05).
The social interaction test is a model used to measure anxiolytic or anxiogenic behaviour in rodents. When a pair of unfamiliar rats is placed together in the open field the animals show specific social behaviours (sniffing, following, grooming, crawling over and under other rats). Anxiolytic compounds such as benzodiazepines increase in the time spent with social interactions. In our experiment rats were submitted to the social interaction test of anxiety 30 min after drug treatment. The social interaction test consisted of 10 min of social encounters between two animals that received the same pharmacological treatment. The results are illustrated in FIG. 6.

Where [7] appears, read: HEK 293 cells expressing GABAA α5, expressed as % of GABA EC50, read-out: α5 IC50.
The mark [8] stands for this setting: HEK 293 cells expressing GABAA α1, expressed as % of GABA EC50, read-out: α1 IC50.

Where two headings read alike, the source gives them in different places.

T3 sequence (P14867 28-456): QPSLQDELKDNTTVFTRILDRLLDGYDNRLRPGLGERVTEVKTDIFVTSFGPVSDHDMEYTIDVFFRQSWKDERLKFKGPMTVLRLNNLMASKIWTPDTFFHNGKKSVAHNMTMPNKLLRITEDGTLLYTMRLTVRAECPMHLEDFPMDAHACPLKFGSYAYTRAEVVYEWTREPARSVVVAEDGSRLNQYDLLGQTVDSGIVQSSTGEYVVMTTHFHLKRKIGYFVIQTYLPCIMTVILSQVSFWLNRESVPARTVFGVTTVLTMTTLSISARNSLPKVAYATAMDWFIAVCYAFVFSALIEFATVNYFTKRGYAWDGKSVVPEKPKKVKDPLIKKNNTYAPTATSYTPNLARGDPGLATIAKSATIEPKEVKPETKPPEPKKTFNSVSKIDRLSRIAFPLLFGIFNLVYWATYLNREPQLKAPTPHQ
T3 sequence (P47870 26-474 isoform P47870-1 partner limits assumed): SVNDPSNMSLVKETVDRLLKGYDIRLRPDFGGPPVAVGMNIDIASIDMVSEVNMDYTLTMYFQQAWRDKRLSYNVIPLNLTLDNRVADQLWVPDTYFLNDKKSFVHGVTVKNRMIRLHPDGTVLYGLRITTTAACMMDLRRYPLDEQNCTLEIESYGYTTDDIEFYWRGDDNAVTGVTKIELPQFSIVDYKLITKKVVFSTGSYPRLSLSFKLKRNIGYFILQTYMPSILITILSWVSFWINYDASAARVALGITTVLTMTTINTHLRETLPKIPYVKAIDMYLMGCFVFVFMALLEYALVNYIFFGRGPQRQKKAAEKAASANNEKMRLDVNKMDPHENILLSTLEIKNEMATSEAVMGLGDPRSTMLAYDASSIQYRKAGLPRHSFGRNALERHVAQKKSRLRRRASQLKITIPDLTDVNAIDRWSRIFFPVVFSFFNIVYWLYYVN
T3 sequence (P18507 40-475 partner): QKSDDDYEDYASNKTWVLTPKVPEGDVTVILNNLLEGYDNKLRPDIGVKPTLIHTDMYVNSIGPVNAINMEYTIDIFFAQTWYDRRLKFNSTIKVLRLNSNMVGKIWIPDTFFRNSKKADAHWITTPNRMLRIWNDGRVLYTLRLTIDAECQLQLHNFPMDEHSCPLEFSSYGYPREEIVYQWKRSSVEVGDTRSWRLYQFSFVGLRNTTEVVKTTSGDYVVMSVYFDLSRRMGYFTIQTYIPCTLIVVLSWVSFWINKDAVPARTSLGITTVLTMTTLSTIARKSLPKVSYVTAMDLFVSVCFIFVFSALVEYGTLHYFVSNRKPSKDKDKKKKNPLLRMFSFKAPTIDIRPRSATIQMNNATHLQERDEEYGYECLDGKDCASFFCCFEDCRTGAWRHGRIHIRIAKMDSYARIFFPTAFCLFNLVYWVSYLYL
T1 sequence (P47869 29-451): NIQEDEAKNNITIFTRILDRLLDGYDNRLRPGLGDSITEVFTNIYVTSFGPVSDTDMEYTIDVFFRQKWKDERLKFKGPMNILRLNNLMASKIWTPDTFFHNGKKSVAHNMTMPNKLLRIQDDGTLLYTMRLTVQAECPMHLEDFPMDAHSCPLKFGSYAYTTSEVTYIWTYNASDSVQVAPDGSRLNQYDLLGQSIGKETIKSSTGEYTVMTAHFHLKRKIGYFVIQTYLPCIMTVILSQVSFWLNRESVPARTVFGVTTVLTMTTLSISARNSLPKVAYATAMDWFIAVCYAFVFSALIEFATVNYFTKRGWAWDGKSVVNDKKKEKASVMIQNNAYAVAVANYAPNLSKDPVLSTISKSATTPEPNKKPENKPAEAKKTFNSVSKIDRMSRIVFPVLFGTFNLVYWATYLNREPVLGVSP
T1 sequence (P47870 26-474 isoform P47870-1 partner limits assumed): as the sequence (P47870 26-474 isoform P47870-1 partner limits assumed) above
T1 sequence (P18507 40-475 partner): as the sequence (P18507 40-475 partner) above
T2 sequence (P31644 32-462): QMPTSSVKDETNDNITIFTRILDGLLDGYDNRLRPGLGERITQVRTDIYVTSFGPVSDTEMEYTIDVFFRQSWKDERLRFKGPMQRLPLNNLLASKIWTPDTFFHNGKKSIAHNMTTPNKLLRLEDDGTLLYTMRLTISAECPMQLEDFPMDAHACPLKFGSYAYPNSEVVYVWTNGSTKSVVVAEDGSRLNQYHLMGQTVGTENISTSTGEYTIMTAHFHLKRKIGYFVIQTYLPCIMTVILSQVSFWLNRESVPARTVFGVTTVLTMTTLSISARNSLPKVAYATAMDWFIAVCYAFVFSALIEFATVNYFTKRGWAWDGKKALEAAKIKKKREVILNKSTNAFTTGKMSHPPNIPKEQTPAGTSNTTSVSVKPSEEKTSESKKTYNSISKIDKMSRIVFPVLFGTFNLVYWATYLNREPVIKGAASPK
T2 sequence (P47870 26-474 isoform P47870-1 partner limits assumed): as the sequence (P47870 26-474 isoform P47870-1 partner limits assumed) above
T2 sequence (P18507 40-475 partner): as the sequence (P18507 40-475 partner) above

`CCc1c(C2=NN=C(C)Cc3cc4c(cc32)OC(C)C(=O)N4)sc2ccc(Cl)cc12` (racemic) [Example 9, 6-(5-Chloro-3-ethyl-1-benzothiophen-2-yl)-3,9-dimethyl-1,10-dihydro[1,4]oxazino[3,2-h][2,3]benzodiazepin-2(3H)-one] came in with an EC50 in experiment [1] of 1000 nM. The figures for the IC50 in experiment [2] (setting [7]) and in experiment [3] (setting [8]) were 700 nM and more than 10 µM, respectively.

In the case of `COc1ccc2oc(C3=NN=C(C)Cc4cc5c(cc43)OC(C)C(=O)N5)c(C)c2c1` (racemic) [Example 2, 6-(5-Methoxy-3-methyl-1-benzofuran-2-yl)-3,9-dimethyl-1,10-dihydro[1,4]oxazino[3,2-h][2,3]benzodiazepin-2(3H)-one], the EC50 in experiment [1] was 800 nM. Besides, the 50% inhibitory concentration (IC50) in experiment [2] is 800 nM; in experiment [3], more than 10 µM.

In the case of `CC1=NN=C(c2sc3ccc(Cl)cc3c2C)c2cc3c(cc2C1)NC(=O)C(C)O3` (single isomer, unassigned; (-)) [Example 26, (−)-6-(5-Chloro-3-methyl-1-benzothiophen-2-yl)-3,9-dimethyl-1,10-dihydro[1,4]oxazino[3,2-h][2,3]benzodiazepin-2(3H)-one], the “Anxiolytic activity in Light-dark test (activity in the light compartment)” value in the experiment with mice [4] is given as “Anxiolytic activity”.

Turning to `CC1=NN=C(c2oc3ccc(Cl)cc3c2C)c2cc3c(cc2C1)NC(=O)C(C)O3` (centres unmarked) [Example 12, 6-(5-Chloro-3-methyl-1-benzofuran-2-yl)-3,9-dimethyl-1,10-dihydro[1,4]oxazino[3,2-h][2,3]benzodiazepin-2(3H)-one], in experiment [1], the midpoint of the response, the EC50, lay at 1000 nM. For the same compound, the IC50 in experiment [2] is 3000 nM; in experiment [3] it was more than 10 µM.

In experiment [1], `CC1=NN=C(c2sc3cccc(F)c3c2C)c2cc3c(cc2C1)NC(=O)C(C)O3` (centres unmarked) [Example 1, 6-(4-fluoro-3-methyl-1-benzothiophen-2-yl)-3,9-dimethyl-1,10-dihydro[1,4]oxazino[3,2-h][2,3]benzodiazepin-2(3H)-one] yielded an EC50 of 3500 nM. For the same compound, the IC50 in experiment [2] was 700 nM; in experiment [3], more than 10 µM.

As for `CC1=NN=C(c2sc3ccc(Cl)cc3c2C)c2cc3c(cc2C1)NC(=O)C(C)O3` (single isomer, unassigned; (+)) [Example 25, (+)-6-(5-Chloro-3-methyl-1-benzothiophen-2-yl)-3,9-dimethyl-1,10-dihydro[1,4]oxazino[3,2-h][2,3]benzodiazepin-2(3H)-one], the “Effect in the PCP-induced PPI disruption model” value with mice [5] is listed as “Ameliorating effect”.

Consider `CC1=NN=C(c2sc3ccc(Cl)cc3c2C)c2cc3c(cc2C1)NC(=O)C(C)O3` (centres unmarked) [Example 24, 6-(5-Chloro-3-methyl-1-benzothiophen-2-yl)-3,9-dimethyl-1,10-dihydro[1,4]oxazino[3,2-h][2,3]benzodiazepin-2(3H)-one], for which the “Procognitive effect (discrimination index) in the object recognition model” value in the experiment with mice [6] was “Procognitive effects”.

For `CC1=NN=C(c2oc3ccc(O)cc3c2C)c2cc3c(cc2C1)NC(=O)C(C)O3` (centres unmarked) [Example 14, 6-(5-Hydroxy-3-methyl-1-benzofuran-2-yl)-3,9-dimethyl-1,10-dihydro[1,4]oxazino[3,2-h][2,3]benzodiazepin-2(3H)-one], in experiment [1], the EC50 is 1000 nM. The IC50 in experiment [2] amounted to 430 nM; in experiment [3], 13.7 µM.

`COc1ccc2oc(C3=NN=C(C)Cc4cc5c(cc43)OC(C)C(=O)N5)c(C)c2c1` (single isomer, unassigned; (+)) [Example 4, (+)-6-(5-Methoxy-3-methyl-1-benzofuran-2-yl)-3,9-dimethyl-1,10-dihydro[1,4]oxazino[3,2-h][2,3]benzodiazepin-2(3H)-one]: the “Procognitive effect (discrimination index) in the object recognition model” value with mice [6] is “Procognitive effects”. In addition, the “Anxiolytic activity in the social interaction model” value in the experiment with rats is recorded as “Anxiolytic activity”.

Consider `CCc1ccc2oc(C3=NN=C(C)Cc4cc5c(cc43)OC(C)C(=O)N5)c(CC)c2c1` (centres unmarked) [Example 13, 6-(3,5-Diethyl-1-benzofuran-2-yl)-3,9-dimethyl-1,10-dihydro[1,4]oxazino[3,2-h][2,3]benzodiazepin-2(3H)-one], for which the EC50 in experiment [1] was determined as 1100 nM. The IC50 in experiment [2] is 1300 nM; in experiment [3], more than 10 µM.

With `CC1=NN=C(c2sc3cc(Cl)ccc3c2C)c2cc3c(cc2C1)NC(=O)C(C)O3` (racemic) [Example 5, 6-(6-Chloro-3-methyl-1-benzothiophen-2-yl)-3,9-dimethyl-1,10-dihydro[1,4]oxazino[3,2-h][2,3]benzodiazepin-2(3H)-one], the EC50 in experiment [1] was 1200 nM. Moreover, the values for the IC50 in experiment [2] (setting [7]) and in experiment [3] (setting [8]) were 900 nM and more than 10 µM, respectively.

With `CC1=NN=C(c2sc3cc(Cl)c(F)cc3c2C)c2cc3c(cc2C1)NC(=O)C(C)O3` (centres unmarked) [Example 8, 6-(6-Chloro-5-fluoro-3-methyl-1-benzothiophen-2-yl)-3,9-dimethyl-1,10-dihydro[1,4]oxazino[3,2-h][2,3]benzodiazepin-2(3H)-one], in experiment [1], the EC50 worked out at 1000 nM. Also, the IC50 in experiment [2] is 3000 nM; in experiment [3] it was more than 10 µM.

These data come from US9926332B2, “Dihydro-oxazinobenzodiazepine compounds, a process for their preparation and pharmaceutical compositions containing them” (priority 2014, dated 2018).
